US20240158359A1, “HYDROLYSIS-RESISTANT ESTERS FOR DRUG AND IMAGING AGENT DELIVERY” (The Board of Trustees of the University of lllinois, priority 2022, published 2024)

Columns and labels:
[1] = Hydrolytic stability of BL660 esters in PBS, luciferase BL readout; type: physicochemical; settings: for rate of hydrolysis: 10 μM, PBS pH 7.4, 37° C., 1, 6 and 12 hours
Procedure: We began our analysis of stability by incubating BL660 esters of Compound (1), Compound (2), and Compound (3) at 37° C. in PBS (phosphate-buffered saline) (pH 7.4). After 1, 6, and 12 hours, luciferase was added (10mU, 37° C., pH 7.4) to initiate BL production. The rate of hydrolysis, reported as total luminescence counts per hour, indicates hydrolysis in descending order is: Compound (1) (13.9±1.4×10^3); Compound (2) (3.3±0.6×10^3), and Compound (3) (1.0±0.1×10^3) (FIG. 1b, wherein the esters are indicated on the horizontal axis) and FIG. 8 (wherein the respective timeline plots are identified beneath the horizontal axis as (1), (2), etc.). Luminescent counts were recorded using an IVIS In Vivo Imaging System. […] Without wishing to be bound by any theory, we speculate hydrolysis of (3) may involve an SN1 mechanism, thus favoring formation of a double benzylic carbocation.

porcine liver esterase = assay: Esterase reactivity: treatment with porcine liver esterase, BL readout; type: in vitro ADME; settings: 10 μM, porcine liver esterase 0.1 units/mL, 37° C., pH 7.4, 20, 40 and 60 minutes
Excerpt: The enzymatic rates, reported as total luminescence counts per minute, in descending order are: Compound (1) (31.0±6.8×10^2), (3) (9.5±1.2×10^2), and (2) (0.6±0.1×10^2) (FIG. 1c and FIG. 9). The greater stability imparted by the aromatic ring is not surprising since esterase reactivity can be readily attenuated with bulkier substituents.

A549 cells = assay: MTT assay using MTX-Me2 and MTX-(PhiPr)2; type: cell-based; settings: highest concentration (10 μM), 24 hours
Procedure: Next, we modified the two carboxylates in methotrexate (a potent anticancer and immunosuppressive drug) to afford the methyl (MTX-Me2) or Ph^iPr (MTX-(Ph^iPr)2) ester variants (FIG. 2b). A549 cells were cultured and treated with MTX-Me2 or MTX-(Ph^iPr)2 at various concentrations for 24 hours before they were subjected to MTT analyses. […] Statistical analysis for FIG. 3b, FIG. 3c and FIG. 3d was performed using a two-tailed t-test (α=0.05, **** P<0.001)
48-well plates were seeded with 30,000 A549 cells per well (500 μL of 60,000 cells/mL) and incubated at 37° C. with 5% CO2 for 24 hours. Media was removed and fresh serum-free RPMI 1640 containing […] of MTX-Me2 or MTX-(PriPr)2 were added (0.1% DMSO final v/v). The media was removed after 24 hours incubation and replaced with 500 μL of a 20:1 mixture of serum-free RPMI 1640 and (3-(4,5-dimethylthiazol2-yl)-2,5-diphenyl-tetrazolium bromide (MTT, 5 mg/mL stock in PBS). The cells were incubated for 2 hours under the same condition and then the medium was removed and replaced with DMSO (500 μL/well). The absorbance of each well was recorded at 555 nm on a microplate reader. Viability was calculated by the absorbance relative to the vehicle control.

4T1-Luc cells = assay: Ester stability in live 4T1-Luc cells, BL imaging; type: cell-based, murine; settings: 10 μM
Procedure: First, we prepared BL660-Me, a methyl ester derivative of BL660 as shown in FIG. 2a for comparison to the benzyl ester (4) of FIG. 1a. Next, we cultured 4T1 murine breast cancer cells, stably expressing the luciferase enzyme (4T1-Luc). The cells were then treated with a DMSO (dimethyl sulfoxide) vehicle control, BL660-Me or Compound (4) (FIG. 3a and FIG. 10a, b, c respectively?). Imaging was performed using the IVIS In Vivo Imaging System.
4T1-Luc cell was cultured in phenol red-free RPMI 1640 (ATCC) with 10% fetal bovine serum (FBS, Sigma Aldrich), and 1% penicillin/streptomycin (Corning).
Evaluation of BL660-Me and 4 in 4T1-Luc Cells. 4T1-Luc cells (180K) were seeded into 24-well plates and incubated for 24 hours. The cells were ˜85% confluent. The media was removed and replaced with serum-free RPMI 1640. An initial background scan was recorded on an IVIS imaging system in open mode where no filters were applied. Cells were then treated with DMSO (2.5 μL, 0.5%), BL660-Me, or compound 4 in DMSO (10 μM final concentration). After 30 minutes incubation at 37° C., bioluminescence was collected. ROIs were drawn around each well. The total luminescence count for each well for a given condition was averaged. The signal intensity was quantified using the Living Image Analysis Software.

Row | Compound | rate of hydrolysis [1] | enzymatic rate (porcine liver esterase) | viability (A549 cells) [%] | further results
1 | CCN(CC)c1ccc(C=CC=CC2=NC(C(=O)OC(c3ccccc3)c3ccccc3)CS2)cc1 (stereo not drawn) [Compound (2)] | 3.3±0.6×10^3 total luminescence counts per hour | 0.6±0.1×10^2 total luminescence counts per minute | – | –
2 | CC(C)C(OC(=O)CCC(NC(=O)c1ccc(N(C)Cc2cnc3nc(N)nc(N)c3n2)cc1)C(=O)OC(c1ccccc1)C(C)C)c1ccccc1 (mixture of isomers) [MTX-(Ph^iPr)2] | – | – | 100 | –
3 | CCN(CC)c1ccc(C=CC=CC2=NC(C(=O)OC)CS2)cc1 (stereo not drawn) [BL660-Me] | – | – | – | luminescence relative to Compound (4) (4T1-Luc cells; 30 mins): 31 fold; luminescence relative to the vehicle (4T1-Luc cells; 30 mins): 55 fold; total luminescence count (4T1-Luc cells; 30 mins at 37° C.): 94.1±5.9×10^3 total luminescence count
4 | COC(=O)CCC(NC(=O)c1ccc(N(C)Cc2cnc3nc(N)nc(N)c3n2)cc1)C(=O)OC (stereo not drawn) [MTX-Me2, reference compound] | – | – | ~63 | –
5 | CCN(CC)c1ccc(C=CC=CC2=NC(C(=O)OC(C)c3ccccc3)CS2)cc1 (stereo not drawn) [Compound (3)] | 1.0±0.1×10^3 total luminescence counts per hour | 9.5±1.2×10^2 total luminescence counts per minute | – | effectiveness at blocking hydrolysis, methyl substituent of (3) versus phenyl group of (2) ([1]; PBS pH 7.4, 37° C.): over three-fold more effective at blocking hydrolysis
6 | CCN(CC)c1ccc(C=CC=CC2=NC(C(=O)OCc3ccccc3)CS2)cc1 (stereo not drawn) [Compound (1)] | 13.9±1.4×10^3 total luminescence counts per hour | 31.0±6.8×10^2 total luminescence counts per minute | – | –
